Reference: patent US6916831B2, “Flavone acetic acid analogs and methods of use thereof” (The University of North Carolina at Chapel Hill, priority 2003, dated 2005)
Values after ≈ are worked out from the molar mass of the structure shown. Where two headings read alike, the source gives them in different places.

Legend:
human lung cancer (A549) = assay: Cytotoxicity, SRB assay, A549 cells; assay type: cell-based; conditions: 50% reduction in adsorbance at 562 nm relative to untreated cells
Description: (§1) Compounds 2-4 and 9-12 were evaluated in a tubulin polymerization assay and for cytotoxicity. Tubulin polymerization assays were performed as described in Y. Xia et al., J. Med. Chem. 1998, 41, 1155. Cytotoxic assays were performed as described in L. Rubinstein et al., J. Natl. Cancer Inst. 1990, 82, 1113-8.

[1] = test system: human melanoma cancer (SKMEL-2); assay: Cytotoxicity, SRB assay, SKMEL-2 cells; assay type: cell-based; conditions: 50% reduction in adsorbance at 562 nm relative to untreated cells
Description: as §1

[2] = test system: glioblastoma carcinoma (U-87-MG); assay: Cytotoxicity, SRB assay, U-87-MG cells; assay type: cell-based, human; conditions: 50% reduction in adsorbance at 562 nm relative to untreated cells
Description: as §1

tubulin polymerization = assay: Tubulin polymerization assay (ITP); assay type: biochemical; conditions: for IC50: concentration that inhibits the extent of assembly by 50% after 20 min at 30° C.
Description: as §1

[3] = test system: human epidermoid carcinoma of the nasopharynx (KB); assay: Cytotoxicity, SRB assay, KB cells; assay type: cell-based; conditions: for ED50 KB: SRB assay, 50% reduction in adsorbance at 562 nm relative to untreated cells; for number in parentheses after the ED50 bound, KB: not defined in the patent, stands after the highest concentration (>20 or >10 μg/mL)
Description: as §1

[4] = test system: human breast cancer (MCF-7); assay: Cytotoxicity, SRB assay, MCF-7 cells; assay type: cell-based; conditions: 50% reduction in adsorbance at 562 nm relative to untreated cells
Description: as §1

bone carcinoma (HOS) = assay: Cytotoxicity, SRB assay, HOS cells; assay type: cell-based, human; conditions: 50% reduction in adsorbance at 562 nm relative to untreated cells
Description: as §1

[5] = test system: human ovarian cancer (1A9); assay: Cytotoxicity, SRB assay, 1A9 cells; assay type: cell-based; conditions: 50% reduction in adsorbance at 562 nm relative to untreated cells
Description: (§2) Cytotoxic assays were performed as described in L. Rubinstein et al., J. Natl. Cancer Inst.

[6] = test system: xenograft ovarian OVCAR-3; conditions: treated mice, xenograft ovarian OVCAR-3 model; cited from earlier work
[7] = test system: seven human tumor cell lines; assay: Cytotoxicity against seven human tumor cell lines (panel); assay type: cell-based; conditions: seven human tumor cell lines: epidermoid, bone, ovarian, glioblastoma, melanoma, lung, breast
Description: as §2

| IC50 (tubulin polymerization) [µM] | melting point [°C] | Compound | ED50 A549 (human lung cancer (A549)) [µg/mL] | ED50 SKMEL-2 [1] [µg/mL] | ED50 U87-MG [2] [µg/mL] | ED50 KB [3] [µg/mL] | number in parentheses after the ED50 bound, KB [3] | ED50 MCF-7 [4] [µg/mL] | ED50 HOS (bone carcinoma (HOS)) [µg/mL] | ED50 1A9 [5] [µg/mL] | increase in life span [6] [%] | activity in the tubulin polymerization assay (in words) (tubulin polymerization) | fold more active in the tubulin polymerization assay (tubulin polymerization; compound 10 relative to the inactive 9 and 12 (IC50>40 μM)) | cytotoxicity in vitro (in words) [7] | activity in the tubulin polymerization assay (in words) (tubulin polymerization; listed as 2-Phenyl-4-quinolone-8-acetic acid) |
| --- | --- | --- | --- | --- | --- | --- | --- | --- | --- | --- | --- | --- | --- | --- | --- |
| 10 to 20 | – | 2-Phenyl-4-quinolone-6-acetic acid [Compound 3] | > 20 | > 20 | > 20 | > 20 | 36 | > 20 | > 20 | > 20 | – | – | – | – | – |
| – | – | O=c1cc(-c2ccccc2F)[nH]c2cc3c(cc12)OCO3 [Compound 1] | – | – | – | – | – | – | – | – | 130 | – | – | – | – |
| > 40 | – | O=C(O)Cc1cccc2[nH]c(-c3ccccc3F)cc(=O)c12 [Compound 2] | > 20 | > 20 | – | – | – | > 20 | – | – | – | totally inactive | – | – | – |
| 20 to 40 | – | O=C(O)Cc1ccc2c(=O)cc(-c3ccccc3F)[nH]c2c1 [Compound 4] | > 20 | > 20 | – | > 20 | 8 | > 20 | – | > 20 | – | totally inactive | – | – | – |
| > 40 | 76 to 78 | COC(=O)Cc1cccc2c(=O)cc(-c3ccccc3)[nH]c12 [Compound 9, 2-Phenyl-4-quinolone-8-methyl acetate] | – | > 20 | – | > 20 | 8 | > 20 | > 20 | > 20 | – | – | – | – | – |
| ~10 | – | COC(=O)Cc1cccc2c(O)cc(-c3ccccc3F)nc12 [Compound 10] | > 10 | > 10 | – | > 10 | 29 | > 10 | > 10 | 7.50 (≈ 24.1 µM) | – | – | about 4 fold | selective activity against ovarian cancers | – |
| > 40 | – | O=C(O)Cc1cccc2c1N=C(c1ccccc1)CC2=O [Compound 11, 2-Phenyl-4-quinolone-8-acetic acid] | 0.11 (≈ 0.394 µM) | 0.06 (≈ 0.215 µM) | 0.12 (≈ 0.43 µM) | 0.04 (≈ 0.143 µM) | – | 0.44 (≈ 1.58 µM) | 0.07 (≈ 0.251 µM) | 0.04 (≈ 0.143 µM) | – | totally inactive | – | extremely potent | not inhibitors of tubulin polymerization |
| > 40 | 243 to 245 | O=C(O)Cc1cccc2c1N=C(c1ccccc1F)CC2=O [Compound 12, 2-(2′-Fluorophenyl)-4-quinolone-8-acetic acid] | 0.06 (≈ 0.202 µM) | 0.05 (≈ 0.168 µM) | 0.07 (≈ 0.235 µM) | 0.03 (≈ 0.101 µM) | – | 0.12 (≈ 0.404 µM) | 0.04 (≈ 0.135 µM) | 0.02 (≈ 0.0673 µM) | – | not inhibitors of tubulin polymerization | – | extremely potent | – |
